Measurements: US20110002934A1, “USES OF ANTI-CD40 ANTIBODIES” (Novartis AG, priority 2007, published 2011)
Where “and” joins values, the source holds several entries; their conditions need not be identical. Identical values can stand only once.

Assays:
[1] = tested on: SU-DHL-4 cells; test: CD40L-induced resistance to CHOP cytotoxicity (CellTiter-Glo); assay type: cell-based, human; conditions: antibody 10 μg/ml; CD40L 1 μg/ml; 3 days; percentage of viable cells
Method: Experiments were performed to elucidate the mechanism by which the H-CHOP combination provides unexpectedly potent anti-tumour efficacy in vivo. SU-DHL-4 cells were cultured in the presence of (i) negative control huIgG1 antibody, (ii) HCD122, (iii) huIgG1 and CD40L or (iv) HCD122 and CD40L. SU-DHL-4 cells were seeded at 30,000 cells/well. The antibodies were all used at 10 μg/ml. Recombinant human soluble CD40L was used at 1 μg/ml with ligand enhancer at 2 μg/ml. All cells were treated with cytoxan at 1 mg/ml, prednisone at 15 μg/ml, doxrubicin at 2.5 ng/ml and vincristin at 1 pg/ml. Cells were cultured for 3 days and the percentage of viable cells determined using CellTiter-Glo.

[2] = tested on: B cells from normal human subjects; test: In vitro proliferation of B cells from normal human subjects; assay type: cell-based
Method: B cells (4×10^4 per well) are cultured in 200 μl IMDM supplemented with 10% fetal calf serum in flat bottom 96-well microtiter plates. B cells are stimulated by addition of immobilized anti-(IgM) antibodies (Immunobeads; 5 μg/ml; BioRad, Richmond, Calif.). Where desired, 100 U/ml recombinant IL-2 is added. Varying concentrations of test monoclonal antibodies (mAbs) are added at the onset of the microcultures and proliferation is assessed at day 3 by measurement of the incorporation of (3H)-thymidine after 18 hour pulsing.
(§1) The antibody is able to kill CD40-expressing target cells by antibody dependent cellular cytotoxicity (ADCC). The binding affinity of HCD122 for human CD40 is 5×10^−10 M, as determined by the Biacore™ assay.

[3] = tested on: SU-DHL-4 cells; test: CD40L-induced NF-kB activation, p65 phosphorylation Western blot, SU-DHL-4 cells; assay type: cell-based, human
Method: (§2) RL and SU-DHL-4 cells were stimulated with CD40L for 0, 10, 30, and 90 minutes and Western blots were performed (FIG. 3). […] The phosphorylation persisted in these cell lines for at least 90 minutes. […] Down-regulating NF-kB activation in a cell may sensitize the cell to CHOP cytotoxicity (Chuang et al. (2002) Biochemical Pharmacology 63:1709-1716; Cheng et al. (2000) Oncogene 19:4936-4940).

[4] = tested on: RL diffuse large B-cell lymphoma (DLBCL) xenograft; test: Anti-tumor activity in RL DLBCL xenograft model; assay type: in vivo; conditions: alone or with CHOP regimen; for Tumor Growth Inhibition (TGI) on Day 25: vs control huIgG
Method: The anti-tumor activity of HCD122 was tested in RL DLBCL xenograft models in combination with CHOP in CB17/SCID mice. 10×10^6 RL cells were subcutaneously implanted with equal volume of Matrigel™ in the animals' midline thoracic vertebral region in a 200 μl volume. The antibody administration was initiated when the mean tumor volume was 150-200 mm^3 in size (noted as day 1 in FIG. 1). […] All monoclonal antibodies were administered on a once-a-week schedule, and the length of treatment was 4 weeks. The CHOP regimen was administered at these doses and schedule: prednisone, 0.2 mg/kg p.o. days 1-5; cytoxan, 40 mg/kg, i.v., day 1; doxorubicin 3.3 mg/kg, i.v., day 1; vincristine, 0.5 mg/kg, i.v., day 1. Group size was n=12. For tumor volume measurements, length then width were measured with a digital caliper. The measurements were recorded twice a week once the tumors became visible. Tumor volumes and doubling times were calculated based on the formula, Volume=L×W^2/2. The animals' weights were recorded and evaluated as a per group average.

[5] = tested on: SU-DHL-4 cell line; test: CD40L-induced expression of cell-surface adhesion molecules, SU-DHL-4 cells; assay type: cell-based, human
Method: (§3) To further elucidate the mechanism by which the H-CHOP combination results in unexpectedly potent anti-tumour efficacy in vivo, further experiments were performed. The ability of B-cells cells to aggregate and interact with their microenvironment may affect the efficacy of therapeutics. The effects of HCD122 on the expression of adhesion molecules in the RL and SU-DHL-4 cell lines was therefore examined.

[6] = tested on: CD40-expressing target cells; test: Antibody dependent cellular cytotoxicity (ADCC); assay type: cell-based
From the text: as §1

[7] = tested on: RL cell line; test: CD40L-induced expression of cell-surface adhesion molecules, RL cells; assay type: cell-based, human
Method: as §3

[8] = molecular target: cell-surface CD40 (Homo sapiens, UniProt P25942); test: Flow cytometric assays of CD40-ligand binding
cell-surface CD40, sequence (P25942 21-277): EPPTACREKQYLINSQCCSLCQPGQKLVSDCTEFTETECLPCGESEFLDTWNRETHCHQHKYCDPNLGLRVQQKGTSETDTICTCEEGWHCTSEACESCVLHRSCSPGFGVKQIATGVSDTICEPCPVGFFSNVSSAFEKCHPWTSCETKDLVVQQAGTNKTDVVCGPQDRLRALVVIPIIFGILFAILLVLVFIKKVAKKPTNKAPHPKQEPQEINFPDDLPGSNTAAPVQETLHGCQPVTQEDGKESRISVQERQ

[9] = tested on: SU-DHL-4 cells; test: CD40L-induced aggregation of SU-DHL-4 cells by microscopy; assay type: cell-based, human
[10] = molecular target: T1, human CD40 (Homo sapiens, UniProt P25942); test: Biacore binding affinity assay
From the text: As used herein “anti-CD40 antibody” encompasses any antibody that specifically recognizes the CD40 antigen. […] Biacore analysis is known in the art and details are provided in the “BIAapplications handbook”.
as §1
Target sequence in this assay (P25942 21-277): as above

[11] = molecular target: soluble CD40 (Homo sapiens, UniProt P25942); test: ELISA-type binding assays
soluble CD40 (Homo sapiens, UniProt P25942), sequence (P25942 21-193 limits assumed): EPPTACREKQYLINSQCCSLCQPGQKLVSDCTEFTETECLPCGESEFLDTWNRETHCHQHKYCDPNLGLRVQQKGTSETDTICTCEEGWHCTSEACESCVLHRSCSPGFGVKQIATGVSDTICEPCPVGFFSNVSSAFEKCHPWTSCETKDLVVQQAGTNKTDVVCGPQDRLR

[12] = tested on: RL cells; test: CD40L-induced NF-kB activation, p65 phosphorylation Western blot, RL cells; assay type: cell-based, human
Method: as §2

[13] = molecular target: soluble CD40 (UniProt P25942 21-193, limits assumed); test: ELISA-type assays
soluble CD40 (UniProt P25942 21-193, limits assumed), sequence (P25942 21-193 limits assumed): as above

[14] = molecular target: T1, human CD40; test: Biacore
[15] = CD40L in the presence of HCD122

## HCD122: human IgG1 anti-CD40 monoclonal antibody, produced by hybridoma deposited with ATCC as PTA-5543
[1]
  CD40L-induced resistance to CHOP cytotoxicity: resistance can be overcome
[2]
  Effects on proliferation of B cells from normal human subjects: acts as antagonist anti-CD40 antibody
  Induction of proliferation of human lymphocytes from normal subjects: does not induce strong proliferation
[3]
  NF-kB activation induced by CD40L: completely blocked
[3]; [15]
  Phosphorylation of p65 on CD40L stimulation: greatly inhibited
[4]; antibody 0.1 mg/kg i.p. once a week for 4 weeks
  Tumor Growth Inhibition (TGI) on Day 25: 28.65%
[4]; antibody 0.1 mg/kg i.p. once a week
  Tumor-growth delay (time to reach tumor size of 500 mm^3): 1.5 days
[4]; antibody 1 mg/kg i.p. once a week for 4 weeks
  Tumor Growth Inhibition (TGI) on Day 25: 71% and 71.15%
[4]; antibody 1 mg/kg i.p. once a week
  Tumor-growth delay (time to reach tumor size of 500 mm^3): 6 days
[5]
  CD40L-induced expression of CD54, CD86 and CD95: inhibit
[6]
  Killing of CD40-expressing target cells by ADCC: able to kill
[7]
  CD40L-induced expression of CD54, CD86 and CD95: inhibit
[8]
  Binding of CD40-ligand to cell-surface CD40: prevents the binding
  Displacement of pre-bound CD40-ligand: displaces the pre-bound CD40-ligand
[9]
  CD40L-induced aggregation of SU-DHL-4 cells: inhibited
[10]
  Kd: 0.5 nM
[11]
  Binding to soluble CD40: binds soluble CD40
[12]
  NF-kB activation induced by CD40L: completely blocked
[12]; [15]
  Phosphorylation of p65 on CD40L stimulation: greatly inhibited

B1: monoclonal antibody HCD122 (antibody, human IgG1, kappa, V domains shown)
VH: QVQLVESGGGVVQPGRSLRLSCAASGFTFSSYGMHWVRQAPGKGLEWVAVISYEESNRYHADSVKGRFTISRDNSKITLYLQMNSLRTEDTAVYYCARDGGIAAPGPDYWGQGTLVTVSS
VL: DIVMTQSPLSLTVTPGEPASISCRSSQSLLYSNGYNYLDWYLQKPGQSPQVLISLGSNRASGVPDRFSGSGSGTDFTLKISRVEAEDVGVYYCMQARQTPFTFGPGTKVDIRR
notes: Fully human IgG1 kappa antibody from XenoMouse; hybridoma ATCC PTA-5543; also called CHIR-12.12; anti-CD40 antibody
[13]
  binding result: binds
[14]
  Kd: 0.5 nM
